The text below walks through data of ChEMBL document CHEMBL1127360, “Antipodal alpha-N-(methyl through decyl)-N-normetazocines (5,9 alpha-dimethyl-2'-hydroxy-6,7-benzomorphans): in vitro and in vivo properties” (J Med Chem, 1994).

The target of one assay is Glutamate NMDA receptor. Kind of assay: Inhibition using [3H]TCP in homogenate of rat brain. Format: tissue-based.
In assay [1] the test system is Mus musculus. The assay can be described thus: In vivo antinociceptive activity was tested through tail flick (TF) with this compound in mouse at 30 mg/kg concentration. Format: functional.
Assay [2] deals with Mus musculus. Kind of assay: In vivo antinociceptive activity at 30 mg/kg was tested through injecting 2 mg/kg ip phenylquinone, activity calculated by total number of abdominal-stretches per group counted over a 1 min period. Format: functional.
A further assay has as its target Mu-type opioid receptor (Rattus norvegicus, UniProt P33535). The assay can be described thus: Inhibition against mu receptor using [3H]DAMGO in homogenate of rat brain cerebellum. The assay is classed as tissue-based.
Assay [3] concerns Mus musculus. Kind of assay: In vivo for its narcotic antagonistic activity of the antinociceptive effect in mouse. The assay is classed as functional, organism-based.
The test system of assay [4] is Mus musculus. The assay can be described thus: In vivo antinociceptive activity at 30 mg/kg was tested through hot plate (HP) by placing mouse on hot plate, and calculating number of times it jumps or licks its paw in 5 seconds. Format: functional.
The test system of assay [5] is Mus musculus. Kind of assay: Compound was tested in vivo for its narcotic antagonistic activity of the antinociceptive effect in mouse. The assay is classed as functional.
The species named for assay [6] is Cavia porcellus. The assay can be described thus: Ratio of potencies against sigma receptor to that of Mu receptor of rat.
Assay [7] addresses Mu-type opioid receptor (Homo sapiens) (UniProt P35372). Kind of assay: Ratio of potencies against Mu receptor to that of kappa receptor of monkey. The following applies: Cercopithecidae; target entry is the homologue from another species.
Assay [8] concerns the target T1, Glutamate NMDA receptor (Rattus norvegicus) (UniProt P35439+Q00959+Q00960+Q00961+Q62645+Q8VHN2+Q9R1M7). The assay can be described thus: Ratio of potencies against PCP receptor to that of Mu receptor of rat. Format: protein-complex assay.
The subject of assay [9] is Mus musculus. Kind of assay: In vivo antinociceptive activity was tested through tail flick (TF) with this compound in mouse. The assay is classed as functional, organism-based.
The next assay relates to Cercopithecidae. The assay can be described thus: Ratio of potencies against Mu receptor of monkey to that of rat.
For assay [10], the target named is T1, Glutamate NMDA receptor (Rattus norvegicus). Kind of assay: Ratio of potencies of (+) and (-) enantiomers against PCP in rats.
Assay [11] concerns Mus musculus. Kind of assay: In vivo antinociceptive activity was tested through hot plate (HP) and counting jumps or paw licks. Format: functional, organism-based.
Assay [12] is filed under the species Cavia porcellus. Kind of assay: Ratio of potencies against PCP receptor to that of sigma receptor.
Assay [13] concerns the target Mu-type opioid receptor (Rattus norvegicus) (UniProt P33535). The assay can be described thus: Ratio of potencies of (+) and (-) enantiomers against Mu receptors in Rats.
Assay [14] deals with Kappa-type opioid receptor (Homo sapiens) (UniProt P41145). Kind of assay: Ratio of potencies of (+) and (-) enantiomers against kappa receptors in monkeys. Particulars: Cercopithecidae; target entry is the homologue from another species.
Assay [15] concerns the target Mu-type opioid receptor (Homo sapiens) (UniProt P35372). The assay can be described thus: Ratio of potencies of (+) and (-) enantiomers against Mu receptors in monkeys. The following applies: Cercopithecidae; target entry is the homologue from another species.
For assay [16], the target named is Sigma non-opioid intracellular receptor 1 (Homo sapiens, UniProt Q99720). The assay can be described thus: Binding affinity against sigma receptor was determined.
The test system of assay [17] is Mus musculus. Kind of assay: In vivo antinociceptive activity at 20 mg/kg was tested through injecting 2 mg/kg ip phenylquinone, activity calculated by total number of abdominal-stretches per group counted over a 1 min period. Format: functional.
Assay [18] deals with Mus musculus. Kind of assay: In vivo antinociceptive activity at 10 mg/kg was tested through injecting 2 mg/kg ip phenylquinone, activity calculated by total number of abdominal-stretches per group counted over a 1 min period. The assay is classed as functional.
In assay [19] the test system is Mus musculus. Kind of assay: In vivo antinociceptive activity at 10 mg/kg was tested through hot plate (HP) by placing mouse on hot plate, and calculating number of times it jumps or licks its paw in 5 seconds. Format: functional.
Assay [20] has as its system Mus musculus. The assay can be described thus: In vivo antinociceptive activity through injecting 2 mg/kg ip phenylquinone, activity calculated by total number of abdominal-stretches per group counted over a 1 min period; Inactive. The assay is classed as functional, organism-based. More on the design: dose 2 mg/kg.
Assay [21] concerns Mus musculus. The assay can be described thus: Compound was tested in vivo for its narcotic antagonistic activity of the antinociceptive effect in mouse at 30 mg/kg. The assay is classed as functional.
Assay [22] concerns Mus musculus. Kind of assay: In vivo antinociceptive activity at 1 mg/kg was tested through hot plate (HP) by placing mouse on hot plate, and calculating number of times it jumps or licks its paw in 5 seconds. The assay is classed as functional.
Assay [23] deals with Mus musculus. Kind of assay: In vivo antinociceptive activity was tested through injecting 2 mg/kg ip phenylquinone, activity calculated by total number of abdominal-stretches. The assay is classed as functional, Abdomen. Particulars: route intraperitoneal.

SMILES strings stand for the structures. The source made the active and inactive calls. The rule behind the calls is not given here.

Chain of Mu-type opioid receptor (P33535 whole entry): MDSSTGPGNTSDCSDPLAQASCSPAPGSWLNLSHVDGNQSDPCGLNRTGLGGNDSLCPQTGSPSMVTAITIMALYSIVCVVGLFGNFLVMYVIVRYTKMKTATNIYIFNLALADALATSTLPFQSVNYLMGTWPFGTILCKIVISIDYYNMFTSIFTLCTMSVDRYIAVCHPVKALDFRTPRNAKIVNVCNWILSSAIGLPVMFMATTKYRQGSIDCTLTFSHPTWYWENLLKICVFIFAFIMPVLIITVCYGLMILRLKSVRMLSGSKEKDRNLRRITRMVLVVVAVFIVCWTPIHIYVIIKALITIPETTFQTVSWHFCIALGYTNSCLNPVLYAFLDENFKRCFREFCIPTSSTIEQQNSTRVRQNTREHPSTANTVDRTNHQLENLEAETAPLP
Chain of Mu-type opioid receptor (Homo sapiens) (P35372 whole entry): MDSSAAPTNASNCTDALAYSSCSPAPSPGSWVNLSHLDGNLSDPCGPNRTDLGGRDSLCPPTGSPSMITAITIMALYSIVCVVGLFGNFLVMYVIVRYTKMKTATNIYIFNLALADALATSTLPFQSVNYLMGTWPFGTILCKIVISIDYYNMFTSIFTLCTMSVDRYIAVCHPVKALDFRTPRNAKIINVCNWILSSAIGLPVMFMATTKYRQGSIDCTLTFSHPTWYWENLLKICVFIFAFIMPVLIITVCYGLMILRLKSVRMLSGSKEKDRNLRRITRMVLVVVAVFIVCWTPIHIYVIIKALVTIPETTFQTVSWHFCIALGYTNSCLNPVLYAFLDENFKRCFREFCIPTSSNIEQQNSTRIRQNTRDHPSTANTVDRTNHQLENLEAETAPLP
Chain of Sigma non-opioid intracellular receptor 1 (Q99720 whole entry): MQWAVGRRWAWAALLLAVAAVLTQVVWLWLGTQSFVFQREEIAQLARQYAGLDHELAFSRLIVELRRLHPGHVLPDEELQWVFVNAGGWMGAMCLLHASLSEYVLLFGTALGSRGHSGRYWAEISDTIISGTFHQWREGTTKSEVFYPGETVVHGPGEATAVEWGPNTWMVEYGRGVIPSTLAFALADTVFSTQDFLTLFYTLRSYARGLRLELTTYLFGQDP
Chain of Mu-type opioid receptor (Rattus norvegicus) (P33535 whole entry): as the sequence (P33535 whole entry) above
Chain of Kappa-type opioid receptor (Homo sapiens) (P41145 whole entry): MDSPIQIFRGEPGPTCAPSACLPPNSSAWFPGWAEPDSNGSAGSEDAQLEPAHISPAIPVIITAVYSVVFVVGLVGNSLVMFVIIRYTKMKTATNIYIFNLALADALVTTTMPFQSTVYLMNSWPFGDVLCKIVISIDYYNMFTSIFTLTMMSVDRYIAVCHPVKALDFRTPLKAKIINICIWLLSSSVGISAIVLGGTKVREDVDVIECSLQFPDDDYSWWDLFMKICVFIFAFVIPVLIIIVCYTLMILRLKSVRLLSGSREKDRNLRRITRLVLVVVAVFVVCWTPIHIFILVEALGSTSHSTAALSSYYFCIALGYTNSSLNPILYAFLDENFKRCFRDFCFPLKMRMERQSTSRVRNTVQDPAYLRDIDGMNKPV

What is called Ki is the dissociation constant of the complex between target and ligand, obtained from inhibition or displacement. One may read the inhibition in vivo as the percentage by which the read-out fell short of the control. What is called Inhibition is the relative decrease from the control value, in per cent. Consider `C[C@H]1C2Cc3ccc(O)cc3[C@@]1(C)CCN2`, for which the inhibitory constant (Ki) on Glutamate NMDA receptor came out at 197 nM; on Mu-type opioid receptor, 23 nM. For the same compound, the inhibition in vivo at 30 mg/kg in the assay on Mus musculus [1] was 13%; with Mus musculus [4], 38%. For the same compound, the Inhibition with Mus musculus [2] is 66%. For the same compound, the outcome in the assay on Mus musculus [3] was inactive.

As to `CCCCN1CC[C@]2(C)c3cc(O)ccc3CC1[C@@H]2C`, the Activity in the assay with Mus musculus [5] stood at 1.5. Besides, the Ki at Glutamate NMDA receptor came out at 613 nM; on Mu-type opioid receptor it was 13 nM. Also, the Ratio in the assay filed under Cavia porcellus [6] came out at 8; in assay [7] it was 1.4; in assay [8], 47; in the assay with Cercopithecidae, 0.3; in [10] it was 1.5; in the assay filed under Cavia porcellus [12], 5.9. Also, the figures for the Ratio in assay [13], in [14] and in [15] were 221, 160 and 365, respectively. For the same compound, the Inhibition in the assay with Mus musculus [2] is recorded as 40%. Also, the result in the assay on Mus musculus [9] and with Mus musculus [11] was inactive.

In turn, `C=CCN1CC[C@]2(C)c3cc(O)ccc3CC1[C@@H]2C` (single isomer, unassigned; (+)) came in with a Ki in [16] of 124 nM.

`C[C@@H]1C2Cc3ccc(O)cc3[C@]1(C)CCN2C`: the values for the Ki on Glutamate NMDA receptor and at Mu-type opioid receptor were 41 nM and 4970 nM, respectively. The Ratio in the assay listed under Cavia porcellus [6] is 0.3; in assay [7], 2.7; in [8], 0.008; in the assay on Cercopithecidae, 0.3; in the assay filed under Cavia porcellus [12] it was 0.03. Besides, the outcome in the assay with Mus musculus [9] and in the assay on Mus musculus [11] was inactive. For the same compound, the Inhibition with Mus musculus [17] was 43%.

For `C[C@@H]1C2Cc3ccc(O)cc3[C@]1(C)CCN2`, the Ki on Glutamate NMDA receptor came out at 30 nM; at Mu-type opioid receptor, 470 nM. This compound also returned an inhibition in vivo at 30 mg/kg in the assay with Mus musculus [1] of 27%. Also, the Inhibition in the assay with Mus musculus [18] is listed as 23%. Moreover, the inhibition in vivo at 10 mg/kg in the assay with Mus musculus [19] was 13%. In addition, in the assay with Mus musculus [3], the result was inactive.

As to `CCCN1CC[C@@]2(C)c3cc(O)ccc3CC1[C@H]2C`, the Ki came to 606 nM on Glutamate NMDA receptor and 5220 nM at Mu-type opioid receptor. Moreover, the Ratio was found to be 0.008 in the assay filed under Cavia porcellus [6]; 0.5 in assay [7]; 0.1 in assay [8]; 0.2 with Cercopithecidae; 14.1 in the assay listed under Cavia porcellus [12]. The result in the assay on Mus musculus [20], with Mus musculus [9] and in the assay with Mus musculus [11] was inactive. This compound yielded an inhibition in vivo at 30 mg/kg with Mus musculus [21] of 20%.

`C=CCN1CCC2c3cc(O)ccc3CC1C2C` (single isomer, unassigned; (-)) yielded a Ki in assay [16] of 4300 nM.

For `CCN1CC[C@]2(C)c3cc(O)ccc3CC1[C@@H]2C`, the results for the Activity with Mus musculus [5] and in the assay with Mus musculus [23] were 3.7 and 1.4, respectively. Also, in the assay on Mus musculus [22], the inhibition in vivo at 1 mg/kg is 13%. Further, the Ki at Glutamate NMDA receptor was determined as 1870 nM; on Mu-type opioid receptor it was 32 nM. For the same compound, in the assay with Mus musculus [9], the outcome was inactive. In addition, the inhibition in vivo at 10 mg/kg in the assay on Mus musculus [19] was 25%. The inhibition in vivo at 30 mg/kg in the assay on Mus musculus [4] is 25%.
